Assay results: patent US11622964B2, “Method for destroying cellular mechanical homeostasis and promoting regeneration and repair of tissues and organs, and use thereof” (INSTITUTE OF ZOOLOGY, CHINESE ACADEMY OF SCIENCES, priority 2018, dated 2023)
“Also recorded” adds a separate entry of the source.

Key:
[1] = test system: CCl4-induced mild hepatic fibrosis; assay: CCl4-induced mild hepatic fibrosis model; format: in vivo, mice; conditions: 1 mg or 3 mg per kg per day, intraperitoneal or tail vein injection, 1-2 weeks
Procedure: The ICR, C57Bl/6 mice used in the experiment are purchased from SPF (Beijing) Biotechnology Co., Ltd., carbon tetrachloride is purchased from Aladdin Reagent (Shanghai) Co., Ltd. (C131583-1L), and corn oil is purchased from Sigma (C8267). 8-week-old female mice are selected and housed in the barrier for one week, they are randomly divided into two groups, and respectively injected with CCl4/corn oil (a volume ratio of 2:5) and corn oil. The dose of CCl4 is 0.5 ml/kg, twice a week for 4 weeks. After 4 weeks, the mice are anesthetized with 5% chloral hydrate, and part of the hepatic lobe is taken out, fixing with 4% paraformaldehyde, dehydrating and immersing in wax, then staining with Sirius Red (YY-R20384-100ML) kit for fibrosis, wherein the collagenous fibers are red, as shown in FIG. 2B. After successful identification of the modeling, the drug administration is performed by intraperitoneal injection or tail vein injection. The small molecule is dissolved in dimethyl sulfoxide at a concentration of 1 mg or 3 mg per kg per day; successfully adding 2-5% DMSO+30% propylene glycol+2% Tween 80+ddH2O, and the control group (“Control”) is abbreviated as “Con” in the figure. […]

liver tissue = assay: Liver tissue rigidity (Young's modulus, Mark-10 ESM303) and second harmonic scanning in CCl4 chronic severe liver damage; format: in vivo, mice
Text: The ICR, C57Bl/6 mice used in the experiment are purchased from SPF (Beijing) Biotechnology Co., Ltd.; elbow tweezers, finger tweezers, scissors, needle holders, suture needles, suture threads are purchased from Asone Trading Co., Ltd.; antibiotics are purchased from Gibco (15240-062). A chronic severe liver damage model induced by CCl4 (the same as Example 4) is constructed, and the mice are sacrificed by cervical dislocation after modeling. […] It can be seen from the above results that, the myosin inhibitor reduces the tissue rigidity during liver damage process.

[2] = test system: bleomycin-induced pulmonary fibrosis; assay: Bleomycin-induced pulmonary fibrosis model; format: in vivo, mice; conditions: 1-3 mg/kg/day
Procedure: In the invention, bleomycin (BLM) is instilled into pulmonary tracheal of ICR or C57Bl/6 mice to successfully construct a mouse model of pulmonary fibrosis, and the mice are treated by intraperitoneal administration of myosin inhibitor (−)-blebbistatin. […] The detailed processes of injecting bleomycin are as follows:
(1) Dilution of bleomycin: 50 mg/ml stock solution is diluted 25 times to obtain a final concentration of 2 mg/ml.
(2) The mice are anesthetized by intraperitoneal injection of 0.5% sodium pentobarbital (100 μl/10 g b.w.).
(3) The neck skin is disinfected by 75% alcohol, cutting the neck skin and bluntly separating the mucosa and muscles of the trachea, exposing the trachea, and taking care not to damage the thyroid.
(4) 50 μl (20 g body weight) of bleomycin is injected into the interval of tracheal cartilage by an insulin syringe at a dose of 5 mg/kg. After the needle is pulled out, putting the console upright, rotating left and right for 1 min, and then the skin is sutured. The mice eat food and drink water freely after spontaneously awakening.
The mice are identified and divided into two groups: DMSO (indicated as “Con” in FIG. 8) and (−)-blebbistatin (indicated as “Bleb” in FIG. 8, 1-3 mg/kg/day) are respectively administrated by intraperitoneal injection, wherein they are respectively dissolved in 2-5% DMSO+30% PEG400+2% Tween80+ddH2O. The survival status of the mice is recorded with intraperitoneal injection/day, tail vein injection/3 days. The result is shown in FIG. 8B, all the mice in the control group died on day 8 of treatment, while the mice in the Bleb treatment group have a survival rate of 40% on day 15 of treatment.
(6) Small animal CT scanning is performed on D8 (modeling on D14), the samples are taken and fixed after heart perfusion, slicing the samples and performing H&E and Sirius red staining. The result is shown in FIG. 8D, (−)-blebbistatin inhibits tissue damage and fibrosis during bleomycin-induced lung damage.

[3] = test system: homologous recombination repair; assay: Homologous recombination repair reporter plasmid system (flow cytometry, GFP/mRuby); format: cell-based; conditions: treated for 4 h at 18 h, 24 h, 36 h after medium change; flow analysis 72 h after transfection
Procedure: First, a reporter plasmid system for homologous recombination repair is constructed, and the cells emit green fluorescence only when the foreign homologous sequence and the homologous fragment of the cell are homologously recombined. Meanwhile, mRuby red fluorescent protein is transferred to label the efficiency of transfected cells, and the efficiency of homologous recombination is determined by flow cytometry analysis of the ratio of green fluorescent protein to mRuby. 18 h after changing the medium for the transfection, the control group is treated with DMSO for 4 h; and 18 h, 24 h, and 36 h after changing the medium for the transfection, the experimental group is treated with (−)-blebbistatin for 4 h, and the HDR efficiency is analyzed by flow analysis 72 h after transfection. […] The experimental procedure is as follows: after changing the medium for the transfection, the control group is treated with DMSO; and after changing the medium for the transfection, the experimental group is treated with 250 nM RTA408; then the HDR efficiency is analyzed by flow analysis 72 h after transfection.

[4] = test system: mouse hepatic stellate cells (mHSCs); assay: TGF-β1-induced transformation of mouse hepatic stellate cells into myofibroblasts; format: cell-based; conditions: 20 μM, 3 ng/ml TGF-β1, 7 days
Text: (§1) In this example, cell models for in vitro fibrosis are respectively built to activate mouse hepatic stellate Cells (mHSCs, FIG. 13(B)), mouse embryonic fibroblasts (MEFs FIG. 13(C)), mouse adult liver, lung, and heart-derived primary mesenchymal cells (priMCs, FIG. 13(D)), and human hepatic stellate cells (hLX-2, FIG. 13(E)) into myofibroblasts through the induction of TGF-β1. The specific experimental procedure is as shown in FIG. 9A: a medium containing 10% serum is used for the initial cell culture; after 24 hours the medium is replaced with low serum medium (or pre-starvation treatment for 16 hours) while adding 3 ng/ml TGF-β1 with DMSO or Bleb (20 μM); after 7 days the expression of myofibroblast activation marker protein (Acta2), collagen (Col1a1, Col1a2, Col3a1, and Col1a2), and matrix metalloproteinases and inhibitors (collagenases: MmP8, and MmP13; gelatinases: MmP2, and MmP9; a metalloproteinase inhibitor: Timp1/2/3) are identified.

[5] = test system: mouse adult liver, lung, and heart-derived primary mesenchymal cells (priMCs); assay: TGF-β1-induced transformation of mouse primary mesenchymal cells into myofibroblasts; format: cell-based; conditions: 20 μM, 3 ng/ml TGF-β1, 7 days
Text: as §1

Cc1ccc2c(c1)C(=O)[C@]1(O)CCN(c3ccccc3)C1=N2 [(−)-blebbistatin]
fibrosis (Sirius red staining) [1]: significantly inhibits | rigidity of liver tissue (Young's modulus) (liver tissue; day 7 of the treatment): significantly reduces | massive parallel array of fibers in the liver tissue (second harmonic intravital scanning) (liver tissue; mouse, in vivo): reduced | decrease in lung volume (small animal CT) [2]: inhibits the decrease | lung tissue damage (H&E staining) [2]: inhibits | pulmonary fibrosis (Sirius red staining, statistical analysis) [2]: inhibiting pulmonary fibrosis; also recorded: significantly improves; also recorded: inhibits | survival of mice with pulmonary fibrosis (in words) [2]: significantly promoting survival | decrease in lung volume (small animal CT) ([2]; listed as Bleb): significantly inhibits | lung tissue damage (H&E staining) ([2]; listed as Bleb): relieves lung damage | pulmonary fibrosis (Sirius red staining, statistical analysis) ([2]; listed as Bleb): relieves pulmonary fibrosis | survival of mice with pulmonary fibrosis (in words) ([2]; listed as Bleb): significantly increases | survival rate ([2]; day 15 of treatment, 10 mice per group): 40% | efficiency of homologous recombination (HDR efficiency) [3]: significantly increases | TGF-β1 induced transformation into myofibroblasts and extracellular matrix synthesis [4]: significantly inhibits | TGF-β1 induced transformation into myofibroblasts and extracellular matrix synthesis [5]: significantly inhibits
